{"source": "patent US6159705A", "about": "“Recombinant yeast cells for identifying receptor effectors” (Cadus Pharmaceutical Corporation, priority 1997, dated 2000)", "key": {"[1]": {"test_system": "CY6571 yeast growth (HIS3 gene product)", "experiment": "Elimination of LIRMA growth, strain CY6571 (FPRL-1)", "format": "cell-based, S. cerevisiae", "details": "CY6571, selective media", "procedure": "(§1) It was determined that the yeast growth on selective media that resulted from LIRMA was eliminated by the additional of 2.5 millimolar concentrations of 3-aminotriazole (AT). AT is an inhibitor of the HIS3 gene product that serves to reduce background growth. Therefore, selection protocols aimed at the identification of surrogate ligands for the FPRL-1 receptor were carried out at this concentration of AT."}, "[2]": {"test_system": "CY7467 yeast growth (HIS3 gene product)", "experiment": "Elimination of LIRMA growth, strain CY7467 (thrombin receptor)", "format": "cell-based, S. cerevisiae", "details": "CY7467, selective media", "procedure": "as §1, with “addition” for “additional”, “novel peptide” for “surrogate”, “human thrombin” for “FPRL-1”"}, "human thrombin receptor": {"test_system": "human thrombin receptor", "experiment": "Growth on -Leu-Ura-His + 2.5 mM AT, yeast expressing thrombin receptor", "format": "cell-based", "details": "yeast bearing thrombin receptor plasmid (CY7467)", "from_the_text": "The amplified product was purified by gel electrophoresis, restricted with NcoI and BamHI and ligated to NcoI and BamHI-cut CADUS 1871, a PGK promoter-driven expression vector, to yield CADUS 2260. Cloning into CADUS 1871 introduces a novel stop codon preceded by the triplet GlySerVal after the authentic carboxy terminal codon of the human thrombin receptor (threonine). In addition, an invertase signal sequence is fused to the authentic amino terminus of the receptor.\nThe yeast strain CY1141 (MATalpha far1*1442 tbt1-1 fus1-HIS3 can1 ste14::trp1::LYS2 ste3* 1156 gpal(41)-Galphai2 lys2 ura3 leu2 trp1 his3) was transformed with CADUS 2260 to yield strain CY7467, expressing the human thrombin receptor. CY7467 was inoculated to 10 mls of standard synthetic media (SD) lacking leucine (-Leu) and incubated overnight at 30 C. […] The OD600 of each cell suspension was determined and crude plasmid isolations were done on 8-16 OD units of cells for each pool. […]\nStrain CY7467 was transformed with […] of each plasmid pool by electroporation. […] The cells from each of these plates were scraped into 5 mls of H2 O, the OD600 of the cell suspensions were determined and crude plasmid isolations were done on 8-16 OD units of yeast cells. […]"}, "FPRL-1 receptor": {"target": "T1, FPRL-1 receptor (Homo sapiens, UniProt P25090)", "T1 sequence (P25090 1-351)": "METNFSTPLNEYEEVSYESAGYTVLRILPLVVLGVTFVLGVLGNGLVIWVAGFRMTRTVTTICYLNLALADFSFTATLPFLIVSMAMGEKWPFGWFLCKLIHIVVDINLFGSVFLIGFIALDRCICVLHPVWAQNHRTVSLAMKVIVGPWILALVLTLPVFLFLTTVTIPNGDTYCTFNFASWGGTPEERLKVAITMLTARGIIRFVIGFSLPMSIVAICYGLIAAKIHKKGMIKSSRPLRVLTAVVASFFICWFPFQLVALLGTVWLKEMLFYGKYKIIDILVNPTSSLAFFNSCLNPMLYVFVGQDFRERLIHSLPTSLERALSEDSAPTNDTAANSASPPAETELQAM", "description": "For verificatiin of pheromone pathway activation and quantification of the stimulation, the activity of the fus1 promoter was determined colorimetrically using a fus1-lacZ fusion in a parallel set of test strains. CY1141, described above, was used as the recipient strain for these experiments. […] Four strains (bearing the identical plasmids) were grown overnight in minimal media lacking leucine, uracil, and tryptophan, pH8.6. The overnight cultures were used to inoculate -Leu -Ura -Trp pH6.8 media and these new cultures were grown for approximately 4.5-5 hours to an OD600 of less than 0.4."}, "[3]": {"test_system": "human orphan receptor FPRL-1", "experiment": "Growth on -Leu-Ura-His + 2.5 mM AT, yeast expressing FPRL-1", "format": "cell-based", "details": "yeast bearing FPRL-1-encoding plasmid (CY6571), plasmids A1 and A3-A10", "from_the_text": "The yeast strain CY1141 (MATalpha far1*1441 tbt1-1 fus1-HIS3 can 1 ste14::trp1:;LYS2 ste3*1156 gpa1(41)-Galphai2 lys2 ura3 leu2 trp1 his3) was used in the experiments that follow. CY1141 contains a pheromone inducible HIS3 gene, fus1-HIS3 integrated at the FUS1 locus and a hybrid gene encoding the first 41 amino acids of GPA1 (yeast G alpha) fused to sequence encoding human G alphai2 (lacking codons encoding the N-terminal 33 amino acids) replacing GPA1 at its chromosomal locus. The yeast STE14 gene is disrupted to lower the basal level of signaling through the pheromone response pathway. The yeast a-factor receptor gene, STE3, is deleted. CY1141 was transformed with Cadus 2311 to yield CY6571, a strain expressing the human orphan receptor, FPRL-1.\nIt was determined that the yeast growth on selective media that resulted from LIRMA was eliminated by the additional of 2.5 millimolar concentrations of 3-aminotriazole (AT). AT is an inhibitor of the HIS3 gene product that serves to reduce background growth. […]\nCY6571 was inoculated to 10 mls of standard synthetic media (SD) lacking leucine (-Leu) and incubated overnight at 30° C. […] The OD600 of each cell suspension was determined and crude plasmid isolations were done on 8-16 OD units of cells for each pool. […]"}}, "note": "Where two headings read alike, the source gives them in different places. Where no end group is shown, it is not given here.", "data": [{"compound": "Nc1nc[nH]n1", "note": "[3-aminotriazole]", "values": [{"measurement": "concentration at which LIRMA growth was eliminated", "setting": "[1]", "result": 2.5, "unit": "millimolar"}, {"measurement": "concentration at which LIRMA growth was eliminated", "setting": "[2]", "result": 2.5, "unit": "millimolar"}]}, {"compound": "VCPARYVLPGPVL [SEQ ID NO:45, peptide from random library, conferring growth via human thrombin receptor]", "values": [{"measurement": "growth advantage on media lacking histidine", "setting": "human thrombin receptor", "result": "conferred a growth advantage"}]}, {"compound": "SLLWLTCRPWEAM [peptide A1]", "values": [{"measurement": "β-galactosidase activity", "setting": "FPRL-1 receptor; R+ L+ (CY1141/CADUS 2311/peptide A1/CADUS 1584)", "result": 28, "unit": "units"}, {"measurement": "β-galactosidase activity", "setting": "FPRL-1 receptor; R- L+ (CY1141/CADUS 1289/peptide A1/CADUS 1584)", "result": 3.5, "unit": "units"}, {"measurement": "stimulation over background levels of β-galactosidase", "setting": "FPRL-1 receptor; yeast cy1141", "result": 8, "unit": "fold"}, {"measurement": "growth advantage on media lacking histidine", "setting": "[3]", "result": "conferred a growth advantage"}]}]}
